Experimental data reported in the supplement of paper PMC4862054.

System: CAL-120
Experiment: normalised viability (% of control), CellTiter-Blue; higher = more viable cells (about 100 = DMSO control)
Details: 1 nM; incubation time: 72 h
In short: (§1)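 384-well plates were pre-loaded with compound in 5 µl medium before 20 µl of breast cancer cell suspension was seeded. Following 72 h incubation, 2.5 µl CellTiter-Blue reagent was added for 2 h at 37 °C. Fluorescence was read at 560/590 nm and plates were normalised to vehicle (100) and a positive kill control (0), checked by Z'-factor. Normalised viability is reported at a single listed concentration of the series.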

SMILES | normalised viability [%]
COc1ncc(-c2ccc3nccc(-c4ccnnc4)c3c2)cc1NS(=O)(=O)c1ccc(F)cc1F | 84.2
Cn1c(=O)c(F)c(Nc2ccc(I)cc2F)c2c(=O)n(C[C@@H](O)CO)cnc21 [TAK-733] | 92.4
CCS(=O)(=O)c1cccc(-c2cc(C(=O)NC3CCN(C)CC3)c(C)c3[nH]c4ncc(C)cc4c23)c1 [TAK-901] | 84.4
COc1cccc2c1C(=O)c1c(O)c3c(c(O)c1C2=O)C[C@@](O)(C(C)=O)C[C@@H]3O[C@H]1C[C@H](N)[C@H](O)[C@H](C)O1 [Daunorubicin] | 80.3

Same assay, conditions: 10 nM; incubation time: 72 h

SMILES | normalised viability [%]
COC1=CC(c2cc3ccccc3[nH]2)=N/C1=C\c1[nH]c(C)cc1C [Obatoclax] | 75.5
O=c1[nH]cc(F)c(=O)[nH]1 [Fluorouracil] | 114
CN1CCN(c2ccc3nc(-c4c(N)c5c(F)cccc5[nH]c4=O)[nH]c3c2)CC1 [Dovitinib] | 88.3

Same assay, conditions: 100 nM; incubation time: 72 h

SMILES | normalised viability [%]
COc1ncc(-c2ccc3nccc(-c4ccnnc4)c3c2)cc1NS(=O)(=O)c1ccc(F)cc1F | 28.9
Cn1c(=O)c(F)c(Nc2ccc(I)cc2F)c2c(=O)n(C[C@@H](O)CO)cnc21 [TAK-733] | 74.7
CCS(=O)(=O)c1cccc(-c2cc(C(=O)NC3CCN(C)CC3)c(C)c3[nH]c4ncc(C)cc4c23)c1 [TAK-901] | 50.5
CS(=O)(=O)OCCCCOS(C)(=O)=O [Busulfan] | 110
COc1cccc2c1C(=O)c1c(O)c3c(c(O)c1C2=O)C[C@@](O)(C(C)=O)C[C@@H]3O[C@H]1C[C@H](N)[C@H](O)[C@H](C)O1 [Daunorubicin] | 35.9

Same assay, conditions: 1000 nM; incubation time: 72 h

SMILES | normalised viability [%]
COc1ncc(-c2ccc3nccc(-c4ccnnc4)c3c2)cc1NS(=O)(=O)c1ccc(F)cc1F | 16.1
Cn1c(=O)c(F)c(Nc2ccc(I)cc2F)c2c(=O)n(C[C@@H](O)CO)cnc21 [TAK-733] | 56.3
CCS(=O)(=O)c1cccc(-c2cc(C(=O)NC3CCN(C)CC3)c(C)c3[nH]c4ncc(C)cc4c23)c1 [TAK-901] | 13.2
COC1=CC(c2cc3ccccc3[nH]2)=N/C1=C\c1[nH]c(C)cc1C [Obatoclax] | 9.72
COc1cccc2c1C(=O)c1c(O)c3c(c(O)c1C2=O)C[C@@](O)(C(C)=O)C[C@@H]3O[C@H]1C[C@H](N)[C@H](O)[C@H](C)O1 [Daunorubicin] | 9.51
O=c1[nH]cc(F)c(=O)[nH]1 [Fluorouracil] | 95.8
CN1CCN(c2ccc3nc(-c4c(N)c5c(F)cccc5[nH]c4=O)[nH]c3c2)CC1 [Dovitinib] | 91.8

Same assay, conditions: 10000 nM; incubation time: 72 h

SMILES | normalised viability [%]
COC1=CC(c2cc3ccccc3[nH]2)=N/C1=C\c1[nH]c(C)cc1C [Obatoclax] | 8.54
CS(=O)(=O)OCCCCOS(C)(=O)=O [Busulfan] | 105
O=c1[nH]cc(F)c(=O)[nH]1 [Fluorouracil] | 54.9
CN1CCN(c2ccc3nc(-c4c(N)c5c(F)cccc5[nH]c4=O)[nH]c3c2)CC1 [Dovitinib] | 83.7

Same assay, conditions: 100000 nM; incubation time: 72 h

SMILES | normalised viability [%]
CS(=O)(=O)OCCCCOS(C)(=O)=O [Busulfan] | 88.1

System: DU-4475
Experiment: as above
Details: 0.3 nM; incubation time: 72 h
In short: as §1

SMILES | normalised viability [%]
COc1ncc(-c2ccc3nccc(-c4ccnnc4)c3c2)cc1NS(=O)(=O)c1ccc(F)cc1F | 87.5
Cn1c(=O)c(F)c(Nc2ccc(I)cc2F)c2c(=O)n(C[C@@H](O)CO)cnc21 [TAK-733] | 84.7
CCS(=O)(=O)c1cccc(-c2cc(C(=O)NC3CCN(C)CC3)c(C)c3[nH]c4ncc(C)cc4c23)c1 [TAK-901] | 94.7
COc1cccc2c1C(=O)c1c(O)c3c(c(O)c1C2=O)C[C@@](O)(C(C)=O)C[C@@H]3O[C@H]1C[C@H](N)[C@H](O)[C@H](C)O1 [Daunorubicin] | 84.7

Same assay, conditions: 3 nM; incubation time: 72 h

SMILES | normalised viability [%]
COc1ncc(-c2ccc3nccc(-c4ccnnc4)c3c2)cc1NS(=O)(=O)c1ccc(F)cc1F | 94.4
Cn1c(=O)c(F)c(Nc2ccc(I)cc2F)c2c(=O)n(C[C@@H](O)CO)cnc21 [TAK-733] | 56.7
CCS(=O)(=O)c1cccc(-c2cc(C(=O)NC3CCN(C)CC3)c(C)c3[nH]c4ncc(C)cc4c23)c1 [TAK-901] | 88.1
COC1=CC(c2cc3ccccc3[nH]2)=N/C1=C\c1[nH]c(C)cc1C [Obatoclax] | 86.3
COc1cccc2c1C(=O)c1c(O)c3c(c(O)c1C2=O)C[C@@](O)(C(C)=O)C[C@@H]3O[C@H]1C[C@H](N)[C@H](O)[C@H](C)O1 [Daunorubicin] | 86.3
O=c1[nH]cc(F)c(=O)[nH]1 [Fluorouracil] | 120
CN1CCN(c2ccc3nc(-c4c(N)c5c(F)cccc5[nH]c4=O)[nH]c3c2)CC1 [Dovitinib] | 94.3

Same assay, conditions: 10 nM; incubation time: 72 h

SMILES | normalised viability [%]
COc1ncc(-c2ccc3nccc(-c4ccnnc4)c3c2)cc1NS(=O)(=O)c1ccc(F)cc1F | 82.1
Cn1c(=O)c(F)c(Nc2ccc(I)cc2F)c2c(=O)n(C[C@@H](O)CO)cnc21 [TAK-733] | 15.3
CCS(=O)(=O)c1cccc(-c2cc(C(=O)NC3CCN(C)CC3)c(C)c3[nH]c4ncc(C)cc4c23)c1 [TAK-901] | 101
COc1cccc2c1C(=O)c1c(O)c3c(c(O)c1C2=O)C[C@@](O)(C(C)=O)C[C@@H]3O[C@H]1C[C@H](N)[C@H](O)[C@H](C)O1 [Daunorubicin] | 70.7

Same assay, conditions: 30 nM; incubation time: 72 h

SMILES | normalised viability [%]
COC1=CC(c2cc3ccccc3[nH]2)=N/C1=C\c1[nH]c(C)cc1C [Obatoclax] | 73.7
CS(=O)(=O)OCCCCOS(C)(=O)=O [Busulfan] | 96.1
O=c1[nH]cc(F)c(=O)[nH]1 [Fluorouracil] | 103
CN1CCN(c2ccc3nc(-c4c(N)c5c(F)cccc5[nH]c4=O)[nH]c3c2)CC1 [Dovitinib] | 85.5

Same assay, conditions: 100 nM; incubation time: 72 h

SMILES | normalised viability [%]
COC1=CC(c2cc3ccccc3[nH]2)=N/C1=C\c1[nH]c(C)cc1C [Obatoclax] | 88.2
O=c1[nH]cc(F)c(=O)[nH]1 [Fluorouracil] | 85.6
CN1CCN(c2ccc3nc(-c4c(N)c5c(F)cccc5[nH]c4=O)[nH]c3c2)CC1 [Dovitinib] | 89.4

Same assay, conditions: 300 nM; incubation time: 72 h

SMILES | normalised viability [%]
CS(=O)(=O)OCCCCOS(C)(=O)=O [Busulfan] | 89.2

Same assay, conditions: 1000 nM; incubation time: 72 h

SMILES | normalised viability [%]
CS(=O)(=O)OCCCCOS(C)(=O)=O [Busulfan] | 94.7

System: Hs578T
Experiment: drug sensitivity score (DSS), CellTiter-Glo (DSS (AUC-based score)); higher = stronger drug effect (viability inhibition or cytotoxicity); extreme values may be limits of the assay
Details: incubation time: 72 h
In short: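 Breast cancer cell lines (20 µl suspension) were seeded into 384-well plates holding compound at 5 concentrations in 10-fold steps over a compound-specific 10,000-fold range, then incubated 72 h. CellTox Green fluorescence (485/520 nm) was read first, then CellTiter-Glo luminescence after 10 min at room temperature. Each plate was normalised to 0.1 % DMSO and a positive kill control. The drug sensitivity score was calculated from the area under the fitted dose-response curve.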

SMILES | drug sensitivity score
COc1ncc(-c2ccc3nccc(-c4ccnnc4)c3c2)cc1NS(=O)(=O)c1ccc(F)cc1F | 14
Cn1c(=O)c(F)c(Nc2ccc(I)cc2F)c2c(=O)n(C[C@@H](O)CO)cnc21 [TAK-733] | 0
CCS(=O)(=O)c1cccc(-c2cc(C(=O)NC3CCN(C)CC3)c(C)c3[nH]c4ncc(C)cc4c23)c1 [TAK-901] | 1.14
COC1=CC(c2cc3ccccc3[nH]2)=N/C1=C\c1[nH]c(C)cc1C [Obatoclax] | 0
CS(=O)(=O)OCCCCOS(C)(=O)=O [Busulfan] | 0
COc1cccc2c1C(=O)c1c(O)c3c(c(O)c1C2=O)C[C@@](O)(C(C)=O)C[C@@H]3O[C@H]1C[C@H](N)[C@H](O)[C@H](C)O1 [Daunorubicin] | 4.81
O=c1[nH]cc(F)c(=O)[nH]1 [Fluorouracil] | 0
CN1CCN(c2ccc3nc(-c4c(N)c5c(F)cccc5[nH]c4=O)[nH]c3c2)CC1 [Dovitinib] | 0
